Measurements published in patent publication US20170305922A1, “CARM1 INHIBITORS AND USES THEREOF” (Epizyme, Inc., priority 2014, published 2017).

Key:
[1] = tested on: asymmetric di-methyl PABP1 in RKO cells; assay: RKO methylation assay: In Cell Western (ICW) for asymmetric di-methyl PABP1 (PABP1me2a); details: Homo sapiens, RKO, 48 h, Cellular-based (PABP1me2a) ICW (In Cell Western) assay
From the text: RKO adherent cells were purchased from ATCC (American Type Culture Collection), Manassas, Va., USA. DMEM/Glutamax medium, penicillin-streptomycin, heat inactivated fetal bovine serum, 0.05% trypsin and D-PBS were purchased from Life Technologies, Grand Island, N.Y., USA. Odyssey blocking buffer, 800CW goat anti-rabbit IgG (H+L) antibody, and Licor Odyssey infrared scanner were purchased from Licor Biosciences, Lincoln, Nebr., USA. Asymmetric di-methyl PABP1 antibody was purchased from Cell Signaling Technology, Danvers, Mass., USA. Methanol was purchased from VWR, Franklin, Mass., USA. 10% Tween 20 was purchased from KPL, Inc., Gaithersburg, Md., USA. Paraformaldehyde (PFA) was purchased from EM Sciences. DRAQ5 was purchased from Biostatus Limited, Leicestershire, UK.
RKO adherent cells were maintained in growth medium (DMEM/Glutamax medium supplemented with 10% v/v heat inactivated fetal bovine serum and 100 units/mL penicillin-streptomycin) and cultured at 37° C. under 5% CO2.
Cell treatment, In Cell Western (ICW) for detection of asymmetric di-methyl PABP1 and DNA content: RKO cells were seeded in assay medium at a concentration of 30,000 cells per mL to a poly-D-lysine coated 384 well culture plate (BD Biosciences 356697) with 50 μL per well. Compound (100 nL) from a 96-well source plate was added directly to 384 well cell plate. Plates were incubated at 37° C., 5% CO2 for 48 hours. After two days of incubation, plates were brought to room temperature outside of the incubator for ten minutes and blotted on paper towels to remove cell media. Cells were fixed for 20 minutes at room temperature by adding 50 ul of 8% PFA followed by aspiration of supernatant with the Biotek EL406 plate washer. Cells were then permeabilized by addition of 50 μL of ice cold 100% methanol directly to each well and incubated for 30 min at room temperature. After 30 min, plates were transferred to a Biotek EL406 plate washer and washed 2 times with 100 μL per well of wash buffer (1×PBS). Next 60 μL per well of Odyssey blocking buffer (Odyssey Buffer with 0.1% Tween 20 (v/v)) were added to each plate and incubated 1 hour at room temperature. Blocking buffer was removed and 20 μL per well of primary antibody was added (asymmetric-methyl PABP1) diluted 1:400 in Odyssey buffer with 0.1% Tween 20 (v/v)) and plates were incubated overnight (16 hours) at 4° C. Plates were washed 5 times with 100 μL per well of wash buffer. Next 20 μL per well of secondary antibody was added (1:800 800CW goat anti-rabbit IgG (H+L) antibody, 1:2000 DRAQ5 in Odyssey buffer with 0.1% Tween 20 (v/v)) and incubated for 1 hour at room temperature. The plates were washed 5 times with 100 μL per well wash buffer then 2 times with 100 μL per well of water. Plates were allowed to dry at room temperature then imaged on the Licor Odyssey machine which measures integrated intensity at 700 nm and 800 nm wavelengths. Both 700 and 800 channels were scanned.
First, the ratio for each well was determined by:
Each plate included fourteen control wells of DMSO only treatment (minimum inhibition) as well as fourteen control wells for maximum inhibition treated with 20 μM of a reference compound. The average of the ratio values for each control type was calculated and used to determine the percent […] for each test well in the plate. Reference compound was serially diluted three-fold in DMSO for a total of nine test concentrations, beginning at 20 μM.
Percent inhibition was determined and IC50 curves were generated using triplicate wells per concentration of compound.

[2] = molecular target: T1, Human CARM1 (PRMT4) (Homo sapiens, UniProt Q86X55); assay: CARM1 enzyme assay on peptide substrates (3H-SAM Flashplate); details: Biochemical assay; CARM1 0.25 nM, 3H-SAM 30 nM, peptide 250 nM; read-out: Biochem IC50
T1 construct: Flag-CARM1-His was eluted with 200 ug/ml FLAG peptide in buffer A; made in house; host or cells: HEK 293F cells infected with recombinant baculovirus (pFastBacMam)
T1 sequence (Q86X55 1-585 isoform Q86X55-1): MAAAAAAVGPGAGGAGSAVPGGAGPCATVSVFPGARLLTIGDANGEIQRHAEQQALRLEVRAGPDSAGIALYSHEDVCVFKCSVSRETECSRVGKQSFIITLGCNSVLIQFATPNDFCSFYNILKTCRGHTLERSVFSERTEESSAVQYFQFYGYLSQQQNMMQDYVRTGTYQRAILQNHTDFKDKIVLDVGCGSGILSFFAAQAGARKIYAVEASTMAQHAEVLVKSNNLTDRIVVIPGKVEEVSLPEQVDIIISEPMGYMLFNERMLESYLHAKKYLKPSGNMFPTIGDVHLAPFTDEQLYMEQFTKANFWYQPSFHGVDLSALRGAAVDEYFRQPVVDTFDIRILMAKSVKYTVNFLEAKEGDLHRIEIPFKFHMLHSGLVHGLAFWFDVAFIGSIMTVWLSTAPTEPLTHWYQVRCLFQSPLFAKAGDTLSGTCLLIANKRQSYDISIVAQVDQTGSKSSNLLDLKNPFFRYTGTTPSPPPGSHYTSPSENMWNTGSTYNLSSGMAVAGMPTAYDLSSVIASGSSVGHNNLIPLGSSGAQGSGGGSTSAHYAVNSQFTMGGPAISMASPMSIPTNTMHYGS
From the text: S-adenosylmethionine (SAM), S-adenosylhomocysteine (SAH), bicine, Tween20, dimethylsulfoxide (DMSO), bovine skin gelatin (BSG), sodium butyrate and Tris(2-carboxyethyl)phosphine hydrochloride solution (TCEP) were purchased from Sigma-Aldrich at the highest level of purity possible. ^3H-SAM was purchase from American Radiolabeled Chemicals with a specific activity of 80 Ci/mmol. 384-well streptavidin Flashplates were purchased from PerkinElmer.
Peptide representative of human histone H3 residues 16-30 was synthesized with an N-terminal linker-affinity tag motif and a C-terminal amide cap by 21st Century Biochemicals. […] The sequence was Biot-Ahx-[…]-amide and contained a monomethylated arginine at position 26 (SEQ ID NO.:1).
The gene sequence encoding isoform1 containing a deletion of amino acids 539-561 was amplified subsequently and subcloned into pFastBacMam (Viva Biotech).
Recombinant baculovirus were generated according to Bac-to-Bac kit instructions (Life Technologies). Protein over-expression was accomplished by infecting exponentially growing HEK 293F cell culture at 1.3×10^6 cell/ml with virus (MOI=10) in the presence of 8 mM sodium butyrate. Infections were carried out at 37° C. for 48 hours, harvested by centrifugation, and stored at −80° C. for purification.
Column was washed with 500 mM NaCl in buffer A and Flag-CARM1-His was eluted with 200 ug/ml FLAG peptide in buffer A. Pooled fractions were dialyzed in 20 mM Tris, 150 mM NaCl, 5% glycerol and 1 mM DTT, pH 7.8.
The assays were all performed in a buffer consisting of 20 mM Bicine (pH=7.6), 1 mM TCEP, 0.005% BSG, and 0.002% Tween 20, prepared on the day of use. Compounds in 100% DMSO (1 ul) were spotted into a polypropylene 384-well V-bottom plates (Greiner) using a Platemate Plus outfitted with a 384-channel head (Thermo Scientific). DMSO (1 ul) was added to Columns 11, 12, 23, 24, rows A-H for the maximum signal control and 1 ul of SAH, a known product and inhibitor of CARM1, was added to columns 11, 12, 23, 24, rows I-P for the minimum signal control. A cocktail (40 ul) containing the CARM1 enzyme was added by Multidrop Combi (Thermo-Fisher). The compounds were allowed to incubate with CARM1 for 30 min at room temperature, then a cocktail (10 ul) containing ^3H-SAM and peptide was added to initiate the reaction (final volume=51 ul). The final concentrations of the components were as follows: CARM1 was 0.25 nM, ^3H-SAM was 30 nM, peptide was 250 nM, SAH in the minimum signal control wells was 1 mM, and the DMSO concentration was 2%. The assays were stopped by the addition of non-radiolabeled SAM (10 ul) to a final concentration of 300 uM, which dilutes the ^3H-SAM to a level where its incorporation into the peptide substrate is no longer detectable. 50 ul of the reaction in the 384-well polypropylene plate was then transferred to a 384-well Flashplate and the biotinylated peptides were allowed to bind to the streptavidin surface for at least 1 hour before being washed once with 0.1% Tween20 in a Biotek ELx405 plate washer. The plates were then read in a PerkinElmer TopCount plate reader to measure the quantity of ^3H-labeled peptide bound to the Flashplate surface, measured as disintegrations per minute (dpm) or alternatively, referred to as counts per minute (cpm).
where dpm=disintegrations per minute, cmpd=signal in assay well, and min and max are the respective minimum and maximum signal controls.
where top and bottom are the normally allowed to float, but may be fixed at 100 or 0 respectively in a 3-parameter fit. The Hill Coefficient normally allowed to float but may also be fixed at 1 in a 3-parameter fit. Y is the % inhibition and X is the compound concentration.

IC50 [1] [µM]	IC50 [2] [µM]	Compound
0.198	0.0053	CNC[C@@H](O)COc1ccc(Cl)c(-c2nc(-c3c(C)noc3C)c(C)c(N3C[C@H]4CN(C(=O)OC)C[C@H]4C3)n2)c1 [Example 53]
0.045	0.0044	CNC[C@@H](O)COc1ccc(Cl)c(-c2nc(-c3c(C)noc3C)c(C)c(N3CC4=C(CN(CC(F)F)C4)C3)n2)c1 [Example 54]
0.013	0.0036	CNC[C@@H](O)COc1ccc(Cl)c(-c2nc(-c3c(C)noc3C)c(C)c(N3CC4=C(CN(C(=O)OC)C4)C3)n2)c1 [Example 55]
0.113	0.0038	CNC[C@@H](O)COc1ccc(F)c(-c2nc(-c3c(C)noc3C)c(C)c(N3CC4(CCC(F)CC4)C3)n2)c1 [Example 56]
0.276	0.0034	CNC[C@@H](O)COc1ccc(F)c(-c2nc(-c3c(C)noc3C)c(C)c(N3CC4(CC=CCC4)C3)n2)c1 [Example 57]
0.073	0.0014	CNC[C@@H](O)COc1ccc(Cl)c(-c2nc(-c3c(Cl)cnn3C)c(C)c(N3Cc4cccnc4C3)n2)c1 [Example 58]
0.292	0.0018	CNC[C@@H](O)COc1cccc(-c2nc(-c3c(C)cnn3C)c(C)c(N3Cc4cccnc4C3)n2)c1 [Example 59]
0.389	0.0039	CNC[C@@H](O)COc1cccc(-c2nc(-c3c(C)cnn3C)c(C)c(N3Cc4cncnc4C3)n2)c1 [Example 60]
0.874	0.0137	CNC[C@@H](O)COc1cccc(-c2nc(-c3c(C)cnn3C)c(C)c(N3CC4(CCN(C(=O)OC)CC4)C3)n2)c1 [Example 61]
0.526	0.0647	CNC[C@@H](O)COc1ccc(Cl)c(-c2nc(-c3c(C)noc3C)c(C)c(N3CC4(CN(CC(F)F)C4)C3)n2)c1 [Example 62]
2.06	0.011	CNC[C@@H](O)COc1ccc(Cl)c(-c2nc(-c3c(C)noc3C)c(C)c(N3CC4(CCN(C(C)=O)C4)C3)n2)c1 [Example 63]
0.111	0.011	CNC[C@@H](O)COc1ccc(Cl)c(-c2nc(-c3c(C)noc3C)c(C)c(N3CC4(CCN(C5COC5)CC4)C3)n2)c1 [Example 64]
0.234	0.0078	CNC[C@@H](O)COc1ccc(Cl)c(-c2nc(-c3c(C)noc3C)c(C)c(N3C[C@]4(C)CN(C(=O)OC)C[C@]4(C)C3)n2)c1 [Example 65]
0.261	0.0037	CNC[C@@H](O)COc1ccc(Cl)c(-c2nc(-c3c(C)noc3C)c(C)c(N3Cc4nc(C)n(C)c(=O)c4C3)n2)c1 [Example 66]
0.071	0.005	CNC[C@@H](O)COc1ccc(Cl)c(-c2nc(-c3c(C)noc3C)c(C)c(N3CC4(CCC(F)(F)CC4)C3)n2)c1 [Example 67]
0.144	0.0039	CNC[C@@H](O)COc1ccc(Cl)c(-c2nc(-c3c(C)noc3C)c(C)c(N3CC4(CC=C(F)CC4)C3)n2)c1 [Example 68]
0.022	0.0012	CNC[C@@H](O)COc1ccc(Cl)c(-c2nc(-c3c(C)noc3C)c(C)c(N3Cc4ccc(C)nc4C3)n2)c1 [Example 69]
0.019	0.0032	CNC[C@@H](O)COc1ccc(Cl)c(-c2nc(-c3c(C)noc3C)c(C)c(N3Cc4cnc(OC)nc4C3)n2)c1 [Example 70]
0.221	0.0056	CNC[C@@H](O)COc1ccc(Cl)c(-c2nc(-c3c(C)noc3C)c(C)c(N3C[C@]4(C)CN(CC(F)F)C[C@]4(C)C3)n2)c1 [Example 71]
0.012	0.0029	CCOc1ncc2c(n1)CN(c1nc(-c3cc(OC[C@H](O)CNC)ccc3Cl)nc(-c3c(C)noc3C)c1C)C2 [Example 72]
0.422	0.0061	CNC[C@@H](O)COc1ccc(Cl)c(-c2nc(-c3c(C)noc3C)c(C)c(N3Cc4cc(=O)n(C(C)C)cc4C3)n2)c1 [Example 73]
0.207	0.0097	CNC[C@@H](O)COc1ccc(Cl)c(-c2nc(-c3c(Cl)cnn3C)c(C)c(N3CC4(CCN(C(=O)OC)CC4)C3)n2)c1 [Example 74]
0.396	0.0125	CCn1ncc(Cl)c1-c1nc(-c2cc(OC[C@H](O)CNC)ccc2Cl)nc(N2CC3(CCN(C(=O)OC)CC3)C2)c1C [Example 75]
